{"source": "patent US20250032409A1", "about": "“TREATMENT OF LOW-GRADE INTERMEDIATE-RISK NON-MUSCLE-INVASIVE BLADDER CANCER WITH A THERMALLY GELLING PHARMACEUTICAL COMPOSITION CONTAINING MITOMYCIN” (priority 2023, published 2025)", "key": {"[1]": {"test": "OPTIMA II: mitomycin plasma concentrations", "assay_type": "in vivo, human"}, "LG NMIBC": {"system": "LG NMIBC", "conditions": "dose-intensive administration as primary therapy for LG NMIBC; cited from earlier work"}, "[2]": {"conditions": "human, plasma, other: instillation, read-out: Mitomycin plasma concentration, mean (standard deviation)"}}}
{"smiles": "CO[C@@]12[C@H](COC(N)=O)C3=C(C(=O)C(C)=C(N)C3=O)N1C[C@@H]1N[C@@H]12", "note": "[Mitomycin]", "values": [{"measurement": "Mitomycin plasma concentration, mean (standard deviation)", "setting": "[1]; Pre-instillation, 6 patients, UGN-102", "result": 0, "unit": "ng/mL"}, {"measurement": "AUC", "setting": "[1]; human, plasma, other: instillation, read-out: Concentration-time Curve (AUC) - Mean (standard deviation)", "result": 5.69, "unit": "ng·h/mL"}, {"measurement": "concentration at 0.5 h", "setting": "[1]; [2]", "result": 0.75, "unit": "ng/mL"}, {"measurement": "concentration at 1 h", "setting": "[1]; [2]", "result": 0.6, "unit": "ng/mL"}, {"measurement": "concentration at 2 h", "setting": "[1]; [2]", "result": 0.34, "unit": "ng/mL"}, {"measurement": "concentration at 3 h", "setting": "[1]; [2]", "result": 1.88, "unit": "ng/mL"}, {"measurement": "concentration at 4 h", "setting": "[1]; [2]", "result": 1.93, "unit": "ng/mL"}, {"measurement": "concentration at 5 h", "setting": "[1]; [2]", "result": 0.57, "unit": "ng/mL"}, {"measurement": "concentration at 6 h", "setting": "[1]; [2]", "result": 0.32, "unit": "ng/mL"}, {"measurement": "Cmax", "setting": "[1]; human, plasma, other: intravesical instillation (via urethral catheter), read-out: Concentration (Cmax)", "result": 2.27, "unit": "ng/mL"}, {"measurement": "CR rates", "setting": "LG NMIBC", "result": "50-60%"}]}
